Results reported in patent publication US5250518A, “O-methyl derivatives of azithromycin A” (priority 1990, dated 1993).
Values after ≈ are worked out from the molar mass of the structure shown.

Experiments:
[1] = system: Klebsiella pneumoniae NCTC-10499; experiment: Antibacterial in vitro activity, tube dilution method (Table 1); assay type: cell-based; conditions: NCTC10499, Brain hearth bouillon, 24 hours, 37° C.
Method: (§1) O-methyl derivatives of azithromycin A of the formulae (Ii)-(Il) and their pharmaceutically acceptable addition salts have a potent antimicrobial activity. The preliminary antibacterial in vitro activity of 6-O-methyl-azithromycin A (Ii) was determined on a series of gram-positiveand gram-negative test bacteria and clinical isolates in comparison with erythromycin A. The assessment was performed by the "tube dilution" method. In the investigation there were used 24-hours cultures in "brain hearth bouillon" of standard strains and freshly isolated strains from a clinical sample.
(§2) Substrate: Brain hearth bouillon
(§3) Incubation: 24 hours, 37° C.
(§4) MIC: Minimal Inhibitory Concentration (μg/mL)
(§5) MBC: Minimal Bactericidal Concentration (μg/mL)

[2] = system: Pseudomonas aeruginosa NCTC-10490; experiment: as above; assay type: cell-based; conditions: NCTC10490, Brain hearth bouillon, 24 hours, 37° C.
Method: as §1, §2, §3, §4, §5

[3] = system: Staphilococcus aureus ATCC 6538-P; experiment: as above; assay type: cell-based; conditions: Brain hearth bouillon, 24 hours, 37° C.
Method: as §1, §2, §3, §4, §5

[4] = system: Streptococcus faecalis ATCC-8043; experiment: as above; assay type: cell-based; conditions: Enterococcus faecalis, ATCC8043, Brain hearth bouillon, 24 hours, 37° C.
Method: as §1, §2, §3, §4, §5

[5] = system: Escherichia coli ATCC 10536; experiment: as above; assay type: cell-based; conditions: ATCC10536, Brain hearth bouillon, 24 hours, 37° C.
Method: as §1, with “The” for “O-methyl derivatives of azithromycin A of the formulae (Ii)-(Il) and their pharmaceutically acceptable addition salts have a potent antimicrobial activity. The”

Sarcina lutea ATCC-9341 = experiment: as above; assay type: cell-based; conditions: Micrococcus luteus, ATCC9341, Brain hearth bouillon, 24 hours, 37° C.
Method: as §1, with “The” for “O-methyl derivatives of azithromycin A of the formulae (Ii)-(Il) and their pharmaceutically acceptable addition salts have a potent antimicrobial activity. The”

[6] = system: Haemophylus influenzae 4028; experiment: Antibacterial in vitro activity against clinical isolates, tube dilution method (Table 2); assay type: cell-based; conditions: clinical isolate, Brain hearth bouillon, 24 hours, 37° C.
Method: as §1, §2, §3, §4
(§6) MBC: Minimal Bactericidal Concentation (μg/mL)

[7] = system: Staphylococcus aureus 10097; experiment: as above; assay type: cell-based; conditions: clinical isolate, Brain hearth bouillon, 24 hours, 37° C.
Method: as §1, §2, §3, §4, §6

[8] = system: Staphylococcus aureus 10099; experiment: as above; assay type: cell-based; conditions: clinical isolate, Brain hearth bouillon, 24 hours, 37° C.
Method: as §1, §2, §3, §4, §6

[9] = system: Staphylococcus saprophyticus 3947; experiment: as above; assay type: cell-based; conditions: clinical isolate, Brain hearth bouillon, 24 hours, 37° C.
Method: as §1, §2, §3, §4, §6

[10] = system: Streptococcus faecalis 10390; experiment: as above; assay type: cell-based; conditions: Enterococcus faecalis, clinical isolate, Brain hearth bouillon, 24 hours, 37° C.
Method: as §1, §2, §3, §4, §6

[11] = system: Streptococcus pneumoniae 4050; experiment: as above; assay type: cell-based; conditions: clinical isolate, Brain hearth bouillon, 24 hours, 37° C.
Method: as §1, §2, §3, §4, §6

ATCC 6538P = experiment: Antibacterial in vitro activity in comparison with azithromycin (Table 3); assay type: cell-based, Staphilococcus aureus; conditions: for MIC: Brain hearth Bouillon, 24-48 hours, 37° C., inoculum 10^-5 -10^-6 cfu/mL, read-out: MIC
Description: (§7) In Table 3 there are represented in vitro tests of 6-O-methyl- (Ii), 6,11-di-O-methyl- (Ij), 11-O-methyl- (Ik) and 6,11,4"-tri-O-methyl-azithromycin A (II) in comparison with azithromycin.

ATCC 10240 = experiment: as above; assay type: cell-based; conditions: Brain hearth Bouillon, 24-48 hours, 37° C., inoculum 10^-5 -10^-6 cfu/mL
Description: as §7

ATCC 8043 = experiment: as above; assay type: cell-based; conditions: Staphylococcus faecalis, ATCC8043; Brain hearth Bouillon, 24-48 hours, 37° C., inoculum 10^-5 -10^-6 cfu/mL
Description: as §7

[12] = system: Bacillus cereus NCTC 10320; experiment: as above; assay type: cell-based; conditions: NCTC10320, Brain hearth Bouillon, 24-48 hours, 37° C., inoculum 10^-5 -10^-6 cfu/mL
Description: as §7

[13] = system: Bacillus pumilus NCTC 8241; experiment: as above; assay type: cell-based; conditions: NCTC8241, Brain hearth Bouillon, 24-48 hours, 37° C., inoculum 10^-5 -10^-6 cfu/mL
Description: as §7

[14] = system: Bacillus subtilis NCTC 8241; experiment: as above; assay type: cell-based; conditions: for MIC: Bacillus subtilis, NCTC8241, Brain hearth Bouillon, 24-48 hours, 37° C., inoculum 10^-5 -10^-6 cfu/mL
Description: as §7

[15] = system: Corynebacterium xerosis NCTC 9755; experiment: as above; assay type: cell-based; conditions: NCTC9755, Brain hearth Bouillon, 24-48 hours, 37° C., inoculum 10^-5 -10^-6 cfu/mL
Description: as §7

[16] = system: Escherichia coli ATCC 10536; experiment: as above; assay type: cell-based; conditions: ATCC10536, Brain hearth Bouillon, 24-48 hours, 37° C., inoculum 10^-5 -10^-6 cfu/mL
Description: as §7

[17] = system: Pseudomonas aeruginosa NCTC 10490; experiment: as above; assay type: cell-based; conditions: NCTC10490, Brain hearth Bouillon, 24-48 hours, 37° C., inoculum 10^-5 -10^-6 cfu/mL
Description: as §7

Sarcina lutea ATCC 9341 = experiment: as above; assay type: cell-based; conditions: for MIC: Micrococcus luteus, ATCC9341, Brain hearth Bouillon, 24-48 hours, 37° C., inoculum 10^-5 -10^-6 cfu/mL
Description: as §7

[18] = system: Staphylococcus epidermidis ATCC 12228; experiment: as above; assay type: cell-based; conditions: ATCC12228, Brain hearth Bouillon, 24-48 hours, 37° C., inoculum 10^-5 -10^-6 cfu/mL
Description: as §7

[19] = system: gram-positive and gram-negative test bacteria and clinical isolates; experiment: Preliminary antibacterial in vitro activity, tube dilution method (Tables 1 and 2, summary); assay type: cell-based; conditions: versus erythromycin A
Method: as §1

[20] = Biological activity (1 mg contains μg of azithromycin); conditions: per 1 mg of (Ii)
[21] = system: standard bacterial strains; experiment: In vitro activity on the series of standard bacterial strains (Table 3, summary); assay type: cell-based; conditions: versus azithromycin
Method: In Table 3 there are represented in vitro tests of 6-O-methyl- (Ii), 6,11-di-O-methyl- (Ij), 11-O-methyl- (Ik) and 6,11,4"-tri-O-methyl-azithromycin A (II) in comparison with azithromycin. […] Namely, the majority of the investigated bacterial strains was 2 to 4 times more sensitive in comparison with the parent antibiotic.
Substrate: Brain hearth Bouillon
Incubation: 24-48 hours, 37° C.
Inocculum; 10^-5 -10^-6 cfu/mL

[22] = read-out: MBC (Minimal Bactericidal Concentration)
[23] = read-out: MIC (Minimal Inhibitory Concentration)
[24] = read-out: MBC (Minimal Bactericidal Concentation)

For `CC[C@H]1OC(=O)[C@H](C)[C@@H](O[C@H]2C[C@@](C)(OC)[C@@H](O)[C@H](C)O2)[C@H](C)[C@@H](O[C@@H]2O[C@H](C)C[C@H](N(C)C)[C@H]2O)[C@](C)(OC)C[C@@H](C)CN(C)[C@H](C)[C@@H](O)[C@]1(C)O` [Ii, 6-O-Methyl-azithromycin A], the MBC [1, 22] was 50 µg/mL (≈ 65.5 µM), the MIC [1, 23] was 12.5 µg/mL (≈ 16.4 µM) and the MBC [2, 22] was over 50 µg/mL. The MIC [2, 23] was over 50 µg/mL, the MBC [3, 22] was 0.4 µg/mL (≈ 0.524 µM) and the MIC [3, 23] was 0.2 µg/mL (≈ 0.262 µM). The MBC [4, 22] was 0.4 µg/mL (≈ 0.524 µM), the MIC [4, 23] was 0.2 µg/mL (≈ 0.262 µM) and the MBC [5, 22] was 3.2 µg/mL (≈ 4.19 µM). It also gave an MIC [5, 23] of 1.6 µg/mL (≈ 2.1 µM), an MBC (Sarcina lutea ATCC-9341; [22]) of 0.2 µg/mL (≈ 0.262 µM) and an MIC (Sarcina lutea ATCC-9341; [23]) of 0.1 µg/mL (≈ 0.131 µM). The MBC [6, 24] was 0.2 µg/mL (≈ 0.262 µM), the MIC [6, 23] was 0.05 µg/mL (≈ 0.0655 µM) and the MBC [7, 24] was 0.4 µg/mL (≈ 0.524 µM). For the same compound, the MIC [7, 23] was 0.05 µg/mL (≈ 0.0655 µM), the MBC [8, 24] was 0.1 µg/mL (≈ 0.131 µM) and the MIC [8, 23] was 0.05 µg/mL (≈ 0.0655 µM). It also gave an MBC [9, 24] of 0.8 µg/mL (≈ 1.05 µM), an MIC [9, 23] of 0.4 µg/mL (≈ 0.524 µM) and an MBC [10, 24] of 3.1 µg/mL (≈ 4.06 µM). The MIC [10, 23] was 0.8 µg/mL (≈ 1.05 µM), the MBC [11, 24] was 0.1 µg/mL (≈ 0.131 µM) and the MIC [11, 23] was 0.025 µg/mL (≈ 0.0328 µM). For the same compound, the MIC (ATCC 6538P) was 0.39 µg/mL (≈ 0.511 µM), the “activity with respect to azithromycin (from MIC)” value (“activity … (from MIC)” below) (ATCC 6538P; printed as Micrococcus flavus ATCC 6538 P, versus azithromycin) was “four times as active” and the MIC (ATCC 10240) was 0.79 µg/mL (≈ 1.04 µM). It also gave an MIC (ATCC 8043) of 0.05 µg/mL (≈ 0.0655 µM), an MIC [12] of 0.78 µg/mL (≈ 1.02 µM) and an MIC [13] of 0.2 µg/mL (≈ 0.262 µM). For the same compound, the “activity … (from MIC)” value ([14]; Bacillus subtilis NCTC 8241, versus azithromycin) was “twice as active”, the MIC [14] was 0.2 µg/mL (≈ 0.262 µM) and the MIC [15] was 12.5 µg/mL (≈ 16.4 µM). For the same compound, the MIC [16] was 3.12 µg/mL (≈ 4.1 µM), the MIC [17] was 100 µg/mL (≈ 131 µM) and the MIC (Sarcina lutea ATCC 9341) was 0.0125 µg/mL (≈ 0.0164 µM). The “activity … (from MIC)” value (Sarcina lutea ATCC 9341; Sarcina lutea ATCC 9341, versus azithromycin) was “twice as active”, the MIC [18] was 0.1 µg/mL (≈ 0.131 µM) and the “activity on the investigated strains in comparison with erythromycin A, in words” value [19] was “somewhat improved activity”. For the same compound, the “Biological activity: 1 mg contains azithromycin” value [20] was 754 μg.
With `CC[C@H]1OC(=O)[C@H](C)[C@@H](O[C@H]2C[C@@](C)(OC)[C@@H](O)[C@H](C)O2)[C@H](C)[C@@H](O[C@@H]2O[C@H](C)C[C@H](N(C)C)[C@H]2O)[C@](C)(O)C[C@@H](C)CN(C)[C@H](C)[C@@H](OC)[C@]1(C)O` [Ik, 11-O-Methyl-azithromycin A] the MIC (ATCC 6538P) was 0.2 µg/mL (≈ 0.262 µM), the MIC (ATCC 10240) was 0.1 µg/mL (≈ 0.131 µM) and the MIC (ATCC 8043) was 0.05 µg/mL (≈ 0.0655 µM). For the same compound, the MIC [12] was 0.1 µg/mL (≈ 0.131 µM), the MIC [13] was 0.05 µg/mL (≈ 0.0655 µM) and the MIC [14] was 0.1 µg/mL (≈ 0.131 µM). For the same compound, the MIC [15] was 1.56 µg/mL (≈ 2.04 µM), the MIC [16] was 0.78 µg/mL (≈ 1.02 µM) and the MIC [17] was 25 µg/mL (≈ 32.8 µM). For the same compound, the MIC (Sarcina lutea ATCC 9341) was 0.0125 µg/mL (≈ 0.0164 µM), the MIC [18] was 0.1 µg/mL (≈ 0.131 µM) and the “activity in comparison with azithromycin, in words” value [21] was “significantly higher activity”.
